“And” between values parts separate entries of the source, which are not always exact repeats. Identical values can stand only once. Toxic doses and inconclusive results are not listed. Rule as the data show it: active = T/C of 150% or more; inactive = T/C below 125%.
System: L1210 leukemia ip in BDF1 mice, survival T/C
Experiment: NCI In Vivo Anticancer Drug Screen. Data for tumor model L1210 Leukemia (intraperitoneal) in B6D2F1 (BDF1) mice
Settings: endpoint: mean survival time, higher = longer survival
Summary of the method: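 In this screen, tumor-bearing mice given compound are compared to those given vehicle, and their survival values are reported as a treated-to-control quotient.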

[1] = dose: 100.0 mg/kg/injection, schedule: Q01DX001 (ip), vehicle: saline
[2] = dose: 200.0 mg/kg/injection, schedule: Q01DX001 (ip), vehicle: saline
[3] = dose: 400.0 mg/kg/injection, schedule: Q01DX001 (ip), vehicle: saline

Measured: T/C

NC(=O)NC(=O)c1ccccn1
inactive: dose: 75.0 mg/kg/injection, schedule: Q01DX001 (ip), vehicle: saline 106 % of control | dose: 150.0 mg/kg/injection, schedule: Q01DX001 (ip), vehicle: saline 97 % of control | dose: 300.0 mg/kg/injection, schedule: Q01DX001 (ip), vehicle: saline 100 % of control

Cc1ccc(Br)cc1Br
inactive: [1] 96 % of control | [2] 100 % of control | [3] 94 % of control

COC(OC)/C(C)=N/NC(N)=O
inactive: dose: 100.0 mg/kg/injection, schedule: Q01DX001 (ip), vehicle: carboxymethylcellulose (CMC) 88 % of control | dose: 200.0 mg/kg/injection, schedule: Q01DX001 (ip), vehicle: carboxymethylcellulose (CMC) 116 % of control | dose: 400.0 mg/kg/injection, schedule: Q01DX001 (ip), vehicle: carboxymethylcellulose (CMC) 108 % of control

C1CC[N+]2=C(C1)OCCC2
inactive: dose: 30.0 mg/kg/injection, schedule: Q01DX009 (ip), vehicle: saline 93 % of control | dose: 44.0 mg/kg/injection, schedule: Q01DX009 (ip), vehicle: saline 100 % of control | dose: 60.0 mg/kg/injection, schedule: Q01DX009 (ip), vehicle: saline 106 % of control | dose: 66.0 mg/kg/injection, schedule: Q01DX009 (ip), vehicle: saline 103 % of control | dose: 100.0 mg/kg/injection, schedule: Q01DX009 (ip), vehicle: saline 102 % of control and 103 % of control | dose: 100.0 mg/kg/injection, schedule: Q04DX003 (ip), vehicle: saline 101 % of control | dose: 150.0 mg/kg/injection, schedule: Q01DX009 (ip), vehicle: saline 100 % of control and 104 % of control | dose: 200.0 mg/kg/injection, schedule: Q04DX003 (ip), vehicle: saline 101 % of control | dose: 400.0 mg/kg/injection, schedule: Q04DX003 (ip), vehicle: saline 91 % of control

CCOC(=O)C(O)(CC)CCC(C)C (configuration not stated)
inactive: dose: 50.0 mg/kg/injection, schedule: Q01DX009 (ip), vehicle: saline with Tween-80 101 % of control | dose: 100.0 mg/kg/injection, schedule: Q01DX009 (ip), vehicle: saline with Tween-80 101 % of control | dose: 200.0 mg/kg/injection, schedule: Q01DX009 (ip), vehicle: saline with Tween-80 111 % of control

O=C1CCCCC1Nc1ccc([N+](=O)[O-])cc1 (configuration not stated)
inactive: [1] 87 % of control | [2] 93 % of control | [3] 95 % of control

O=S(=O)(/C=C/c1ccccc1)N1CCCCC1
inactive: [1] 103 % of control | [2] 102 % of control | [3] 102 % of control

COc1ccc([N+](=O)[O-])cc1NC(=O)Nc1ccc(I)cc1
inactive: dose: 100.0 mg/kg/injection, schedule: Q01DX009 (ip), vehicle: Klucel (hydroxypropylcellulose) (HPC) 103 % of control | dose: 200.0 mg/kg/injection, schedule: Q01DX009 (ip), vehicle: Klucel (hydroxypropylcellulose) (HPC) 95 % of control | dose: 400.0 mg/kg/injection, schedule: Q01DX009 (ip), vehicle: Klucel (hydroxypropylcellulose) (HPC) 103 % of control

O=NN1CCCCC1C(=O)O (configuration not stated)
inactive: [1] 98 % of control | [2] 102 % of control

From PubChem BioAssay AID248 (DTP/NCI, 2004)
